Here are results for 23 compounds from patent US20090036492A1, “Novel Cercosporamide Derivative” (priority 2005, published 2009).

The experiment deals with male KK mice. Nature of the experiment: Blood glucose lowering effect in diabetic KK mice. The class given is in vivo. To be noted: 15 to 20 weeks old, feed containing 0.03% of the compound, three days, blood glucose on the 3rd day vs control group; for inhibition in vivo at 0.03 % in feed: Mus musculus, po, 72 h, read-out: Blood glucose lowering efficacy (%). The text has this: Six-week-old male KK mice were purchased from CLEA Japan, Inc. and then were fed until 15 to 20 weeks old and affected with diabetes. The mice were individually fed during the adaptation period and the test period, and water and feed (FR2, Funabashi Farm) were freely ingested.
At the start of the experiment, after body weight measurement, blood was collected from the tail vein of the mice into a heparin-coated glass tube and centrifuged, and then plasma was separated. The glucose level in the plasma was measured by Glucoloader GXT (A&T Corp.), and individuals having a blood glucose level of about 350 mg/dl or more were selected. Groups each having 3 to 4 mice were used for the experiment, and the mice were grouped to make the average body weight and the average blood glucose level similar. Each compound was administered to a compound administration group by feeding a mixture with feed containing 0.03% of the compound. A separate group in which the mice were fed only with feed was a control group.
The experiment period (drug administration period) was three days. The grouping day was the 0th day. On the 3rd day, body weight was measured and blood was collected from the tail vein to measure the blood glucose level.
The blood glucose lowering efficacy was determined by the following formula.
Blood glucose lowering efficacy=[(Control group blood glucose level−Compound administration group blood glucose level)/Control group blood glucose level]×100

For `COc1cc(O)c2c(c1C(=O)NCc1c(C)cc(Cl)c3ccccc13)OC1=CC(O)=C(C(C)=O)C(=O)[C@]12C` [Example 178, (9aS)-8-Acetyl-N-[(4-chloro-2-methyl-1-naphthyl)methyl]-1,7-dihydroxy-3-methoxy-9a-methyl-9-oxo-9,9a-dihydrodibenzo[b,d]furan-4-carboxamide], the inhibition in vivo at 0.03 % in feed worked out at 37%.
On the same count and under the same terms, the value for `COc1cc(O)c2c(c1C(=O)NCc1c(C)cc(F)c3ccccc13)OC1=CC(O)=C(C(C)=O)C(=O)[C@]12C` [Example 180, (9aS)-8-Acetyl-N-[(4-fluoro-2-methyl-1-naphthyl)methyl]-1,7-dihydroxy-3-methoxy-9a-methyl-9-oxo-9,9a-dihydrodibenzo[b,d]furan-4-carboxamide] was 60%.
Still for that read-out and setting: next, `COc1cc(O)c2c(c1C(=O)NCc1c(C)c(C)cc(C)c1C)OC1=CC(O)=C(C(C)=O)C(=O)[C@]12C` [Example 36, (9aS)-8-Acetyl-1,7-dihydroxy-3-methoxy-9a-methyl-9-oxo-N-(2,3,5,6-tetramethylbenzyl)-9,9a-dihydrodibenzo[b,d]furan-4-carboxamide]: 36%.
With `COc1cc(O)c2c(c1C(=O)NCc1ccc(Oc3ccccc3Cl)c3ccccc13)OC1=CC(O)=C(C(C)=O)C(=O)[C@]12C` [Example 166, (9aS)-8-Acetyl-N-{[4-(2-chlorophenoxy)-1-naphthyl]methyl}-1,7-dihydroxy-3-methoxy-9a-methyl-9-oxo-9,9a-dihydrodibenzo[b,d]furan-4-carboxamide], the “Blood glucose lowering efficacy (%)” value is on record as 47%.
With `COc1cc(O)c2c(c1C(=O)NCc1ccc(OCc3ccccc3F)c3ccccc13)OC1=CC(O)=C(C(C)=O)C(=O)[C@]12C` [Example 144, (9aS)-8-Acetyl-N-({4-[(2-fluorobenzyl)oxy]-1-naphthyl}methyl)-1,7-dihydroxy-3-methoxy-9a-methyl-9-oxo-9,9a-dihydrodibenzo[b,d]furan-4-carboxamide], the “Blood glucose lowering efficacy (%)” value is listed as 41%.
As for `CCc1ccc2ccc(F)cc2c1CNC(=O)c1c(OC)cc(O)c2c1OC1=CC(O)=C(C(C)=O)C(=O)[C@]12C` [Example 184, (9aS)-8-Acetyl-N-[(2-ethyl-7-fluoro-1-naphthyl)methyl]-1,7-dihydroxy-3-methoxy-9a-methyl-9-oxo-9,9a-dihydrodibenzo[b,d]furan-4-carboxamide], the inhibition in vivo at 0.03 % in feed is 37%.
Same read-out and setting: the value for `COc1cc(O)c2c(c1C(=O)NCc1ccc(OCc3ccccc3Cl)c3ccccc13)OC1=CC(O)=C(C(C)=O)C(=O)[C@]12C` [Example 147, (9aS)-8-Acetyl-N-({4-[(2-chlorobenzyl)oxy]-1-naphthyl}methyl)-1,7-dihydroxy-3-methoxy-9a-methyl-9-oxo-9,9a-dihydrodibenzo[b,d]furan-4-carboxamide] was 62%.
Consider `CCc1ccc2ccccc2c1CNC(=O)c1c(OC)cc(O)c2c1OC1=CC(O)=C(C(C)=O)C(=O)[C@]12C` [Example 56, (9aS)-8-Acetyl-N-[(2-ethyl-1-naphthyl)methyl]-1,7-dihydroxy-3-methoxy-9a-methyl-9-oxo-9,9a-dihydrodibenzo[b,d]furan-4-carboxamide], for which the inhibition in vivo at 0.03 % in feed worked out at 24%.
On the same count and under the same terms, next, `COc1cc(O)c2c(c1C(=O)NCc1ccc(OCc3ccccc3)c3ccccc13)OC1=CC(O)=C(C(C)=O)C(=O)[C@]12C` [Example 104, (9aS)-8-Acetyl-N-{[4-(benzyloxy)-1-naphthyl]methyl}-1,7-dihydroxy-3-methoxy-9a-methyl-9-oxo-9,9a-dihydrodibenzo[b,d]furan-4-carboxamide]: 53%; `COc1cc(O)c2c(c1C(=O)NCc1c(C)c(C)cc3ccccc13)OC1=CC(O)=C(C(C)=O)C(=O)[C@]12C` [Example 54, (9aS)-8-Acetyl-1,7-dihydroxy-3-methoxy-9a-methyl-N-[(2,3-dimethyl-1-naphthyl)methyl]-9-oxo-9,9a-dihydrodibenzo[b,d]furan-4-carboxamide]: 34%.
The same measure, in the same setting: next, `CCc1cc(F)c2ccc(C)cc2c1CNC(=O)c1c(OC)cc(O)c2c1OC1=CC(O)=C(C(C)=O)C(=O)[C@]12C` [Example 189, (9aS)-8-Acetyl-N-[(2-ethyl-4-fluoro-7-methyl-1-naphthyl)methyl]-1,7-dihydroxy-3-methoxy-9a-methyl-9-oxo-9,9a-dihydrodibenzo[b,d]furan-4-carboxamide]: 47%; `CC(=O)C1=C(O)C=C2Oc3c(C(=O)NCc4c(C)ccc5ccccc45)c(OC(F)F)cc(O)c3[C@]2(C)C1=O` [Example 86, (9aS)-8-Acetyl-3-(difluoromethoxy)-1,7-dihydroxy-9a-methyl-N-[(2-methyl-1-naphthyl)methyl]-9-oxo-9,9a-dihydrodibenzo[b,d]furan-4-carboxamide]: 31%.
On the same count and under the same terms, next, `COc1cc(O)c2c(c1C(=O)NCc1ccc(OCc3ccc(F)cc3)c3ccccc13)OC1=CC(O)=C(C(C)=O)C(=O)[C@]12C` [Example 106, (9aS)-8-Acetyl-N-({4-[(4-fluorobenzyl)oxy]-1-naphthyl}methyl)-1,7-dihydroxy-3-methoxy-9a-methyl-9-oxo-9,9a-dihydrodibenzo[b,d]furan-4-carboxamide]: 51%; `COc1cc(O)c2c(c1C(=O)NCc1c(C)cc(NS(=O)(=O)c3cc(C)c(Cl)cc3Cl)cc1C)OC1=CC(O)=C(C(C)=O)C(=O)[C@]12C` [Example 140, (9aS)-8-Acetyl-N-(4-{[(2,4-dichloro-5-methylphenyl)sulfonyl]amino}-2,6-dimethylbenzyl)-1,7-dihydroxy-3-methoxy-9a-methyl-9-oxo-9,9a-dihydrodibenzo[b,d]furan-4-carboxamide]: 18%; `COc1cc(O)c2c(c1C(=O)NCc1c(C)ccc3c(F)c(F)c(F)cc13)OC1=CC(O)=C(C(C)=O)C(=O)[C@]12C` [Example 190, (9aS)-8-Acetyl-1,7-dihydroxy-3-methoxy-9a-methyl-9-oxo-N-[(5,6,7-trifluoro-2-methyl-1-naphthyl)methyl]-9,9a-dihydrodibenzo[b,d]furan-4-carboxamide]: 58%.
Take `COc1cc(O)c2c(c1C(=O)NCc1ccc(Oc3ccc(Cl)cc3)c3ccccc13)OC1=CC(O)=C(C(C)=O)C(=O)[C@]12C` [Example 167, (9aS)-8-Acetyl-N-{[4-(4-chlorophenoxy)-1-naphthyl]methyl}-1,7-dihydroxy-3-methoxy-9a-methyl-9-oxo-9,9a-dihydrodibenzo[b,d]furan-4-carboxamide]: the inhibition in vivo at 0.03 % in feed amounted to 30%.
`COc1cc(O)c2c(c1C(=O)NCc1c(C)ccc3ccccc13)OC1=CC(O)=C(C(C)=O)C(=O)[C@]12C` [Example 27, (9aS)-8-Acetyl-1,7-dihydroxy-3-methoxy-9a-methyl-N-[(2-methyl-1-naphthyl)methyl]-9-oxo-9,9a-dihydrodibenzo[b,d]furan-4-carboxamide]: the inhibition in vivo at 0.03 % in feed came to 42%.
On the same count and under the same terms, next, `COc1cc(O)c2c(c1C(=O)NCc1ccc(OCc3ccc(F)cc3F)c3ccccc13)OC1=CC(O)=C(C(C)=O)C(=O)[C@]12C` [Example 146, (9aS)-8-Acetyl-N-({4-[(2,4-difluorobenzyl)oxy]-1-naphthyl}methyl)-1,7-dihydroxy-3-methoxy-9a-methyl-9-oxo-9,9a-dihydrodibenzo[b,d]furan-4-carboxamide]: 49%; `CCc1ccc2cccc(F)c2c1CNC(=O)c1c(OC)cc(O)c2c1OC1=CC(O)=C(C(C)=O)C(=O)[C@]12C` [Example 192, (9aS)-8-Acetyl-N-[(2-ethyl-8-fluoro-1-naphthyl)methyl]-1,7-dihydroxy-3-methoxy-9a-methyl-9-oxo-9,9a-dihydrodibenzo[b,d]furan-4-carboxamide]: 42%; `CC#CCOc1cc(C)c(CNC(=O)c2c(OC)cc(O)c3c2OC2=CC(O)=C(C(C)=O)C(=O)[C@]23C)c(C)c1` [Example 97, (9aS)-8-Acetyl-N-[4-(2-butynyloxy)-2,6-dimethylbenzyl]-1,7-dihydroxy-3-methoxy-9a-methyl-9-oxo-9,9a-dihydrodibenzo[b,d]furan-4-carboxamide]: 53%.
As for `COc1cc(O)c2c(c1C(=O)NCc1c(C)cc(Br)c3ccccc13)OC1=CC(O)=C(C(C)=O)C(=O)[C@]12C` [Example 177, (9aS)-8-Acetyl-N-[(4-bromo-2-methyl-1-naphthyl)methyl]-1,7-dihydroxy-3-methoxy-9a-methyl-9-oxo-9,9a-dihydrodibenzo[b,d]furan-4-carboxamide], the inhibition in vivo at 0.03 % in feed was 43%.
Same read-out and setting: the value for `CO/N=C(\C)C1=C(O)C=C2Oc3c(C(=O)NCc4c(C)ccc5ccccc45)c(OC)cc(O)c3[C@]2(C)C1=O` [Example 87, (9aS)-1,7-Dihydroxy-3-methoxy-8-[(1E)-N-methoxyethaneimidoyl]-9a-methyl-N-[(2-methyl-1-naphthyl)methyl]-9-oxo-9,9a-dihydrodibenzo[b,d]furan-4-carboxamide] was 45%.
As to `CC#CCOc1cc(C)c(CNC(=O)c2c(OC)cc(O)c3c2OC2=CC(O)=C(C(C)=O)C(=O)[C@]23C)c(C)c1C` [Example 102, (9aS)-8-Acetyl-N-[4-(2-butynyloxy)-2,3,6-trimethylbenzyl]-1,7-dihydroxy-3-methoxy-9a-methyl-9-oxo-9,9a-dihydrodibenzo[b,d]furan-4-carboxamide], the inhibition in vivo at 0.03 % in feed was 63%.
